Reference: US20240100083A1, “IMMUNOTHERAPY FOR CANCER” (THE PROVOST, FELLOWS, FOUNDATION SCHOLARS, AND THE OTHER …, priority 2020, published 2024)

System: B16 melanoma cells
Assay: costimulatory/co-inhibitory molecule expression on B16 melanoma cells (flow cytometry)
Type: cell-based
Set-up: key to Upregulated (√)/No change (—) Costimulatory MHC CI / Upregulated (√)/No change (—) Costimulatory CD40 / Upregulated (√)/No change (—) Costimulatory CD80 / Upregulated (√)/No change (—) Costimulatory CD86 / Upregulated (√)/No change (—) Coinhibitory TIGIT / Upregulated (√)/No change (—) Coinhibitory PD-L1 / Upregulated (√)/No change (—) Coinhibitory PD-1: upregulated (√); no change (—)
Details: 24 hours, C90, C100, protasan 40 μg/ml, CpG 4 μg/ml, Etoposide 200 μM, DMXAA 10 μg/ml; for Fold increase in MFI Coinhibitory PD-1 / Fold increase in MFI Coinhibitory PD-L1 / Fold increase in MFI Coinhibitory TIGIT / Fold increase in MFI Costimulatory CD40 / Fold increase in MFI Costimulatory CD80 / Fold increase in MFI Costimulatory CD86 / Fold increase in MFI Costimulatory MHC CI: compared to unstimulated control
Method: Flow cytometric analysis of costimulatory molecule expression on B16-F10 cells: 2×10^5 B16 melanoma cells were stimulated with media or 40 μg/ml, C90, C100 or protasan for 24 hours in 24 well plates. Cells were removed from wells using ice cold PBS-EDTA, transferred to labelled FACS tubes and washed with 2 mL of PBS. Cells were stained with BV510 viability dye (1 in 1000 dilition) for 15 minutes at room temperature. Cells were then washed in PBS, and stained for cell surface markers for 30 minutes at room temperature. Cells were then washed in PBS, resuspended in […] of FACs buffer, with samples acquired via BD FACSCanto and the data analysed using Flowjo™ software (Treestar, Oregon).

SMILES | Upregulated (√)/No change (—) Coinhibitory PD-1 | Upregulated (√)/No change (—) Coinhibitory PD-L1 | Upregulated (√)/No change (—) Coinhibitory TIGIT | Upregulated (√)/No change (—) Costimulatory CD40 | Upregulated (√)/No change (—) Costimulatory CD80 | Upregulated (√)/No change (—) Costimulatory CD86 | Upregulated (√)/No change (—) Costimulatory MHC CI | Fold increase in MFI Coinhibitory PD-1 | Fold increase in MFI Coinhibitory PD-L1 | Fold increase in MFI Coinhibitory TIGIT | Fold increase in MFI Costimulatory CD40 | Fold increase in MFI Costimulatory CD80 | Fold increase in MFI Costimulatory CD86 | Fold increase in MFI Costimulatory MHC CI
Cc1ccc2c(=O)c3cccc(CC(=O)O)c3oc2c1C [DMXAA] | √ | √ | √ | — | — | — | √ | 1.2 fold | 1.2 fold | 1.3 fold | 1.1 fold | 1.0 fold | 1.1 fold | 1.2 fold
COc1cc([C@@H]2c3cc4c(cc3[C@@H](O[C@@H]3O[C@@H]5CO[C@@H](C)O[C@H]5[C@H](O)[C@H]3O)[C@H]3COC(=O)[C@H]23)OCO4)cc(OC)c1O [Etoposide] | — | √ | √ √ | √ √ | √ √ | √ √ | √ √ √ | 1.0 fold | 1.6 fold | 1.7 fold | 1.9 fold | 2.2 fold | 1.9 fold | 3.0 fold
